Laboratory results: paper PMC12188521 (RSC Advances, 2025)

Columns and labels:
[1] = molecular target: acetylcholinesterase (AChE) (Homo sapiens, UniProt P22303); experiment: biochemical
[2] = molecular target: butyrylcholinesterase (BuChE) (Homo sapiens, UniProt P06276); experiment: In vitro butyrylcholinesterase inhibitory activity; type: biochemical
Sequence of butyrylcholinesterase (BuChE) (P06276 29-602): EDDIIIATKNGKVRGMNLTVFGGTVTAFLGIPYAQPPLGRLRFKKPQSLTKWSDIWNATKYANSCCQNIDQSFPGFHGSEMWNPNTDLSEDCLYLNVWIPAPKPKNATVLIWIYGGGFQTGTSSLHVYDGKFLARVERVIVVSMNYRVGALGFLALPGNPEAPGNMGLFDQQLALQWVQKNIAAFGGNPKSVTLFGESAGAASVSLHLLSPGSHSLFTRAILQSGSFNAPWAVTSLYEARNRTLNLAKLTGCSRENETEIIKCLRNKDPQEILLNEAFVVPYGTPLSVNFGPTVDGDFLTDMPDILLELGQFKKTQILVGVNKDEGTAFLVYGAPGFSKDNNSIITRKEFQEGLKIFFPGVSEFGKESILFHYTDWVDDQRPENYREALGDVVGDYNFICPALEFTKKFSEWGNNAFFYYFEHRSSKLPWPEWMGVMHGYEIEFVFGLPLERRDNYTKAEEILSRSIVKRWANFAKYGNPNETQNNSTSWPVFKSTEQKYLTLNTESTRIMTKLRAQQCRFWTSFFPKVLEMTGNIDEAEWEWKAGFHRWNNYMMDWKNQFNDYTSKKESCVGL

Sequence of acetylcholinesterase (AChE) (P22303 32-614, species assumed): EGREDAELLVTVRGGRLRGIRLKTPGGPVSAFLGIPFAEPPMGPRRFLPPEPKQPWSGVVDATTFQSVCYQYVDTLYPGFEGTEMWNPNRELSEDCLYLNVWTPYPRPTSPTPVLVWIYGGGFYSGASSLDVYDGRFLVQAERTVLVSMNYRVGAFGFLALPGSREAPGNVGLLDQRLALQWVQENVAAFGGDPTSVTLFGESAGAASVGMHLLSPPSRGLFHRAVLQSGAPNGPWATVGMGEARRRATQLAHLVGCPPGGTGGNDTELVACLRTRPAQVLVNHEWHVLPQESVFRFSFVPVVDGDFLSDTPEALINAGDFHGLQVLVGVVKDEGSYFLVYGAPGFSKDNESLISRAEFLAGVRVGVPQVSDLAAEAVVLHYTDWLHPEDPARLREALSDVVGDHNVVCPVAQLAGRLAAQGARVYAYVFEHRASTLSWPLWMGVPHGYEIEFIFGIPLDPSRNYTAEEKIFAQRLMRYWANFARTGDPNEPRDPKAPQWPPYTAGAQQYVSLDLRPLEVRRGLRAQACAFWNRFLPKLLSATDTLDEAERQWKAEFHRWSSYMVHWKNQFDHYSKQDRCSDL

Compound: CC(=NN=Cc1cccc2ccccc12)c1ccc(OCc2ccc(Br)cc2)cc1 [Compound 2h, 1-(1-(4-((4-Bromobenzyl)oxy)phenyl)ethylidene)-2-(naphthalen-1-ylmethylene)hydrazine]
- IC50 [1]: 128.2 ± 0.98 µM
- IC50 [2]: 166.3 ± 1.2 µM

Compound: CC(=NN=Cc1ccc(Cl)cc1)c1ccc(OCc2ccc(Br)cc2)cc1 [Compound 2d, 1-(1-(4-((4-Bromobenzyl)oxy)phenyl)ethylidene)-2-(4-chlorobenzylidene)hydrazine]
- IC50 [1]: 139 ± 2.33 µM
- IC50 [2]: 161.8 ± 0.07 µM

Compound: COc1cccc(C=NN=C(C)c2ccc(OCc3ccc(Br)cc3)cc2)c1O [Compound 2b, 2-(((1-(4-((4-Bromobenzyl)oxy)phenyl)ethylidene)hydrazono)methyl)-6-methoxyphenol]
- IC50 [1]: 18.6 ± 0.21 µM
- IC50 [2]: 35.31 ± 0.01 µM

Compound: CC(=NN=Cc1ccc(C=O)cc1)c1ccc(OCc2ccc(Br)cc2)cc1 [Compound 2i, 4-(((1-(4-((4-Bromobenzyl)oxy)phenyl)ethylidene)hydrazono)methyl)benzaldehyde]
- IC50 [1]: 141.8 ± 0.77 µM
- IC50 [2]: 177 ± 3.53 µM

Compound: CCN(CC)c1ccc(C=NN=C(C)c2ccc(OCc3ccc(Br)cc3)cc2)cc1 [Compound 2a, 4-(((1-(4-((4-bromobenzyl)oxy)phenyl)ethylidene)hydrazineylidene)methyl)-N,N-diethylaniline]
- IC50 [1]: 44.36 ± 0.33 µM
- IC50 [2]: 77.9 ± 1.46 µM

Compound: CC(=NN=Cc1ccc(C)o1)c1ccc(OCc2ccc(Br)cc2)cc1 [Compound 2e, 1-(1-(4-((4-Bromobenzyl)oxy)phenyl)ethylidene)-2-((5-methylfuran-2-yl)methylene) hydrazine]
- IC50 [1]: 98.21 ± 0.01 µM
- IC50 [2]: 136 ± 2.61 µM

Compound: CC(=NN=Cc1ccc(C)cc1)c1ccc(OCc2ccc(Br)cc2)cc1 [Compound 2g, 1-(1-(4-((4-Bromobenzyl)oxy)phenyl)ethylidene)-2-(4-methylbenzylidene)hydrazine]
- IC50 [1]: 62.28 ± 0.42 µM
- IC50 [2]: 98.7 ± 1.18 µM

Compound: CC(=NN=Cc1ccc(Br)cc1F)c1ccc(OCc2ccc(Br)cc2)cc1 [Compound 2c, 1-(4-Bromo-2-fluorobenzylidene)-2-(1-(4-((4-bromobenzyl)oxy)phenyl)ethylidene)hydrazine]
- IC50 [1]: 150 ± 2.26 µM
- IC50 [2]: 175 ± 2.96 µM

Compound: COc1ccc(C=NN=C(C)c2ccc(OCc3ccc(Br)cc3)cc2)cc1 [Compound 2f, 1-(1-(4-((4-Bromobenzyl)oxy)phenyl)ethylidene)-2-(4-methoxybenzylidene)hydrazine]
- IC50 [1]: 48.37 ± 0.06 µM
- IC50 [2]: 76.3 ± 1.17 µM
